Experimental data: US12569453B2, “Use of tapinarof for the treatment of atopic dermatitis” (Dermavant Sciences GmbH, priority 2018, dated 2026)
Marks after values point to notes of the source that are not given here.

Test system: adult subjects with psoriasis
Test: Phase II/2b clinical study in plaque psoriasis: efficacy and patient-reported outcomes
Assay type: in vivo, human
Details: for PGA response rate (primary endpoint): interim analysis; for subjects with ≥4 improvement in pruritus NRS score from baseline: baseline NRS score ≥4; for PGA response rate (PGA 0 or 1 and ≥2-grade improvement): mITT OC; for PGA treatment success: Week 16 (4 weeks after end of treatment)
From the text: This was a multicenter (United States, Canada, and Japan), randomized, double-blind (Sponsor-unblind), vehicle-controlled, 6-arm, parallel-group, dose-finding study in adult subjects with psoriasis. Certain study personnel at each site were unblinded to dose-frequency.
The study consisted of 3 periods: up to 4 weeks Screening, 12 weeks double-blind treatment, and 4 weeks post-treatment follow-up. Study visits occurred at Screening; Baseline; weeks 1, 2, 4, 8, and 12 during the treatment period; and 2 and 4 weeks after the last application of study treatment (i.e., at weeks 14 and 16). Additional visits could occur, as needed, for early withdrawals or to follow-up on any skin reactions or ongoing AEs. A subject's total duration of study participation was approximately 16 to 20 weeks.
Two concentrations of Tapinarof cream (0.5% and 1%) and a vehicle control were evaluated following application to all psoriasis lesions (except on the scalp) once (QD) or twice daily (BID) for 12 weeks. There were no planned dose adjustments during the study.
Efficacy was assessed by using a 5-point static Physician Global Assessment (PGA) (0-4 scale), the Psoriasis Area and Severity Index (PASI), % BSA involvement, target lesion assessments (erythema, scaling, and plaque thickness), and subject-reported itch/pruritus severity using a numeric rating scale (NRS) (from the Psoriasis Symptom Diary [PSD]). Additional subject-reported outcomes included the daily PSD (which also contained severity and bother items for 3 additional symptoms). Investigator global impression of change item (assessing change in severity of psoriasis symptoms) and 2 subject global impressions of change items (assessing change in severity of psoriasis symptoms and change in severity of itch/pruritus) were also assessed.
Physician Global Assessment: The PGA is a clinical tool for assessing the current state/severity of a subject's psoriasis. It is a static 5-point morphological assessment of overall disease severity, as determined by the investigator, using the clinical characteristics of erythema, plaque thickness, and scaling as guidelines. At each specified time point, the PGA is made without reference to previous scores. Variations of the PGA are frequently used in clinical studies because it is a simple assessment that is more similar to the assessments actually used in clinical practice. Scoring system ranges from 0 (=Clear) to 4 (=Severe).
Psoriasis Area and Severity Index: The PASI scoring system is a widely-used standard clinical tool for assessing the severity of psoriasis that takes into account the overall severity of erythema (redness), thickness (induration), and scale, as well as the extent of BSA affected with psoriasis. The 3 clinical signs are each graded on a 5 point scale (0 to 4) and the % BSA affected is scored on a 7-point scale (0 to 6) for each of the 4 specified body regions (head, upper extremities, trunk, and lower extremities). The individual scores are multiplied by a weighted factor for each body region; the sum of these scores gives the overall PASI score. Higher scores indicate more severe disease. PASI is a static assessment made without reference to previous scores.
Body Surface Area: The extent of BSA affected by psoriasis is a general indicator of disease severity and was measured throughout the study. The extent of BSA to which study treatment was applied was also recorded. For the purpose of approximate clinical estimation, the total palmar surface of the palm plus 5 digits was assumed to be approximately equivalent to 1% BSA.
Target Lesion Grading: A single target lesion was selected at Baseline to assess efficacy in treating a discrete area rather than an overall average of all areas. For that lesion, the severity of erythema, scaling, and plaque thickness was assessed by the investigator on a 5-point scale ranging from “0=none” to “4=severe”. […]

SMILES: CC(C)c1c(O)cc(/C=C/c2ccccc2)cc1O [Tapinarof, 3,5-Dihydroxy-4-isopropyl-trans-stilbene]
- difference in PGA response rate, active minus vehicle (0.5% BID-vehicle BID, Week 12): 35.6%
- PGA response at Week 12 (0.5% BID, 1 to <10% BSA affected at baseline): 33%
- Target lesion Erythema, percent change from Baseline (Mean) (0.5% BID, Early WD): −25.00%
- Target lesion Plaque thickness, percent change from Baseline (Mean) (0.5% BID, Early WD): −33.33%
- Target lesion Scaling, percent change from Baseline (Mean) (0.5% BID, Early WD): −41.67%
- PGA response at Week 12 (0.5% BID, Fitzpatrick skin type I/II): 50%
- PGA response at Week 12 (0.5% BID, Fitzpatrick skin type III/IV): 60%
- PGA response at Week 12 (0.5% BID, Fitzpatrick skin type V/VI): 25%
- Target lesion Erythema, percent change from Baseline (Mean) (0.5% BID, Follow-up Week 14): −68.25%
- Target lesion Plaque thickness, percent change from Baseline (Mean) (0.5% BID, Follow-up Week 14): −67.86%
- Target lesion Scaling, percent change from Baseline (Mean) (0.5% BID, Follow-up Week 14): −68.65%
- Target lesion Erythema, percent change from Baseline (Mean) (0.5% BID, Follow-up/Week 16): −59.47%
- Target lesion Plaque thickness, percent change from Baseline (Mean) (0.5% BID, Follow-up/Week 16): −54.92%
- Target lesion Scaling, percent change from Baseline (Mean) (0.5% BID, Follow-up/Week 16): −57.95%
- Target lesion Erythema, percent change from Baseline (Mean) (0.5% BID, Week 1): −9.95%
- Target lesion Plaque thickness, percent change from Baseline (Mean) (0.5% BID, Week 1): −14.52%
- Target lesion Scaling, percent change from Baseline (Mean) (0.5% BID, Week 1): −12.37%
- Target lesion Erythema, percent change from Baseline (Mean) (0.5% BID, Week 2): −23.61%
- Target lesion Plaque thickness, percent change from Baseline (Mean) (0.5% BID, Week 2): −33.89%
- Target lesion Scaling, percent change from Baseline (Mean) (0.5% BID, Week 2): −35.00%
- Target lesion Erythema, percent change from Baseline (Mean) (0.5% BID, Week 4): −45.54%
- Target lesion Plaque thickness, percent change from Baseline (Mean) (0.5% BID, Week 4): −44.64%
- Target lesion Scaling, percent change from Baseline (Mean) (0.5% BID, Week 4): −50.89%
- Target lesion Erythema, percent change from Baseline (Mean) (0.5% BID, Week 8): −62.33%
- Target lesion Plaque thickness, percent change from Baseline (Mean) (0.5% BID, Week 8): −62.67%
- Target lesion Scaling, percent change from Baseline (Mean) (0.5% BID, Week 8): −60.00%
- PGA response rate (primary endpoint) (0.5% BID, Week 8): 36%
- Mean change in nine items of the PSD from baseline (0.5% BID, Week 12): −4.2^‡
- Mean change in total target lesion grading scores from baseline (0.5% BID, Week 12): −6.2*
- Target lesion Erythema, percent change from Baseline (Mean) (0.5% BID, Week 12): −76.52%
- Target lesion Plaque thickness, percent change from Baseline (Mean) (0.5% BID, Week 12): −71.59%
- Target lesion Scaling, percent change from Baseline (Mean) (0.5% BID, Week 12): −78.03%
- subjects with ≥4 improvement in pruritus NRS score from baseline (0.5% BID, Week 12): 56%
- PGA response rate (PGA 0 or 1 and ≥2-grade improvement) (0.5% BID, Week 12): 46%
- PASI50 response rate (0.5% BID, Week 16): 62%
- PASI75 response rate (0.5% BID, Week 16): 46%
- PASI90 response rate (0.5% BID, Week 16): 27%
- PGA treatment success (0.5% BID): 35%
- PGA response at Week 12 (0.5% BID, psoriasis duration 5 years to <10 years): 20%
- PGA response at Week 12 (0.5% BID, psoriasis duration 6 months to <5 years): 50%
- PGA response at Week 12 (0.5% BID, psoriasis duration ≥10 years): 53%
- PGA response at Week 12 (0.5% BID, ≥10% BSA affected at baseline): 75%
- difference in PGA response rate, active minus vehicle (0.5% QD-vehicle QD, Week 12): 30.7%
- PGA response at Week 12 (0.5% QD, 1 to <10% BSA affected at baseline): 35%
- Target lesion Erythema, percent change from Baseline (Mean) (0.5% QD, Early WD): 8.33%
- Target lesion Plaque thickness, percent change from Baseline (Mean) (0.5% QD, Early WD): 0.00%
- Target lesion Scaling, percent change from Baseline (Mean) (0.5% QD, Early WD): −16.67%
- PGA response at Week 12 (0.5% QD, Fitzpatrick skin type I/II): 25%
- PGA response at Week 12 (0.5% QD, Fitzpatrick skin type III/IV): 44%
- PGA response at Week 12 (0.5% QD, Fitzpatrick skin type V/VI): 25%
- Target lesion Erythema, percent change from Baseline (Mean) (0.5% QD, Follow-up Week 14): −63.77%
- Target lesion Plaque thickness, percent change from Baseline (Mean) (0.5% QD, Follow-up Week 14): −67.39%
- Target lesion Scaling, percent change from Baseline (Mean) (0.5% QD, Follow-up Week 14): −67.75%
- Target lesion Erythema, percent change from Baseline (Mean) (0.5% QD, Follow-up/Week 16): −73.96%
- Target lesion Plaque thickness, percent change from Baseline (Mean) (0.5% QD, Follow-up/Week 16): −71.53%
- Target lesion Scaling, percent change from Baseline (Mean) (0.5% QD, Follow-up/Week 16): −69.79%
- Target lesion Erythema, percent change from Baseline (Mean) (0.5% QD, Week 1): −14.25%
- Target lesion Plaque thickness, percent change from Baseline (Mean) (0.5% QD, Week 1): −10.22%
- Target lesion Scaling, percent change from Baseline (Mean) (0.5% QD, Week 1): −20.97%
- Target lesion Erythema, percent change from Baseline (Mean) (0.5% QD, Week 2): −28.13%
- Target lesion Plaque thickness, percent change from Baseline (Mean) (0.5% QD, Week 2): −26.04%
- Target lesion Scaling, percent change from Baseline (Mean) (0.5% QD, Week 2): −34.38%
- Target lesion Erythema, percent change from Baseline (Mean) (0.5% QD, Week 4): −35.48%
- Target lesion Plaque thickness, percent change from Baseline (Mean) (0.5% QD, Week 4): −42.47%
- Target lesion Scaling, percent change from Baseline (Mean) (0.5% QD, Week 4): −51.34%
- Target lesion Erythema, percent change from Baseline (Mean) (0.5% QD, Week 8): −50.81%
- Target lesion Plaque thickness, percent change from Baseline (Mean) (0.5% QD, Week 8): −60.75%
- Target lesion Scaling, percent change from Baseline (Mean) (0.5% QD, Week 8): −68.01%
- PGA response rate (primary endpoint) (0.5% QD, Week 8): 46%
- Mean change in nine items of the PSD from baseline (0.5% QD, Week 12): −4.1^†
- Mean change in total target lesion grading scores from baseline (0.5% QD, Week 12): −5.8*
- PASI90 response rate (0.5% QD, Week 12): 18%
- Target lesion Erythema, percent change from Baseline (Mean) (0.5% QD, Week 12): −65.06%
- Target lesion Plaque thickness, percent change from Baseline (Mean) (0.5% QD, Week 12): −67.31%
- Target lesion Scaling, percent change from Baseline (Mean) (0.5% QD, Week 12): −72.76%
- subjects with ≥4 improvement in pruritus NRS score from baseline (0.5% QD, Week 12): 57%
- PGA response rate (PGA 0 or 1 and ≥2-grade improvement) (0.5% QD, Week 12): 36%
- PASI50 response rate (0.5% QD, Week 16): 71%
- PASI75 response rate (0.5% QD, Week 16): 54%
- PASI90 response rate (0.5% QD, Week 16): 18%
- PGA treatment success (0.5% QD): 36%
- PGA response at Week 12 (0.5% QD, psoriasis duration 5 years to <10 years): 50%
- PGA response at Week 12 (0.5% QD, psoriasis duration 6 months to <5 years): 29%
- PGA response at Week 12 (0.5% QD, psoriasis duration ≥10 years): 33%
- PGA response at Week 12 (0.5% QD, ≥10% BSA affected at baseline): 38%
- subjects rating overall psoriasis symptoms very improved or moderately improved (0.5% groups, Week 12): 77-80%
- subjects rating pruritus symptoms very improved or moderately improved (0.5% groups, Week 12): 73-77%
- PASI75 responders who maintained response from Week 12 to Week 16 (1% BID): 80%
- PGA responders who maintained response from Week 12 to Week 16 (1% BID): 67%
- difference in PGA response rate, active minus vehicle (1% BID-vehicle BID, Week 12): 54.7%
- PGA response at Week 12 (1% BID, 1 to <10% BSA affected at baseline): 67%
